The target of the experiment is T1, human apelin receptor (Homo sapiens, UniProt P35414).
T1 construct: expressed in transfected cells
T1 sequence (P35414 1-380): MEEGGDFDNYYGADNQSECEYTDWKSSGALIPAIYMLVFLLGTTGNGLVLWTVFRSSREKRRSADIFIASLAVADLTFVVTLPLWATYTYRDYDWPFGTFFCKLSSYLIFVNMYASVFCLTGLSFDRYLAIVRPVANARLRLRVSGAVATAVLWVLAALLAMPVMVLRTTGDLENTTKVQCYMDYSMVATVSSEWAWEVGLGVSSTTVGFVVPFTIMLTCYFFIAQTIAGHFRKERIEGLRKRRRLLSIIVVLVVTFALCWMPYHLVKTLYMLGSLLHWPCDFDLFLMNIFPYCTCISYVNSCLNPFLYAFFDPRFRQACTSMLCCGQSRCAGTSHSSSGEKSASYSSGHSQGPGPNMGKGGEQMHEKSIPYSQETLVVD
Briefly: Determination of agonism on the human apelin receptor by a calcium fluorescence assay (FLIPR). The note with it: HEK293 cells stably transfected with human apelin receptor and Giaq protein, Fluo-4 calcium fluorescence. The class given is cell-based. The procedure, abridged:
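Agonist EC50s come from peak intracellular calcium transients recorded by FLIPR Tetra, scaled to the 1 μM apelin-13 maximum per plate. Test system: HEK293 stably transfected with human apelin receptor plus Giaq, Fluo-4-loaded (4 μM, 1 h, 37 °C, pH 7.4 buffer with probenecid); ≥7 concentrations, triplicates.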

Like-named read-outs stand apart in the source and are kept apart here.

Broadly, the EC50 is the concentration that produces a half-maximal response.

In the case of `CCC(CC)n1c(Cc2cccs2)nc2cc(C(=O)N[C@@H](CC(C)C)C(=O)NC3CCN(Cc4ccccc4)CC3)ccc21` [Example 313, 1-(1-Ethyl-propyl)-2-thiophen-2-ylmethyl-1H-benzoimidazole-5-carboxylic acid [(S)-1-(1-benzyl-piperidin-4-ylcarbamoyl)-3-methyl-butyl]-amide], for the setting “read-out: EC50 (APJ agonism)”, the EC50 is 1890 nM.

As for `CCC(CC)n1c(Cc2cccs2)nc2cc(C(=O)N[C@H](C(=O)O)[C@H](C)CC)ccc21` [Example 153, (2S,3R)-2-{[1-(1-Ethyl-propyl)-2-thiophen-2-ylmethyl-1H-benzoimidazole-5-carbonyl]-amino}-3-methyl-pentanoic acid], the EC50 (read-out: EC50 (APJ agonism)) was 350 nM.

Turning to `CCC(CC)n1c(Cc2cccs2)nc2cc(C(=O)N[C@@H](CC(C)C)C(=O)N3CCC(N(CC)CC)C3)ccc21` (stereo partly drawn) [Example 329, 1-(1-Ethyl-propyl)-2-thiophen-2-ylmethyl-1H-benzoimidazole-5-carboxylic acid [(S)-1-(3-diethylamino-pyrrolidine-1-carbonyl)-3-methyl-butyl]-amide], the EC50 (read-out: EC50 (APJ agonism)) is 362 nM.

With `CCC(CC)n1c(Cc2cccs2)nc2cc(C(=O)N[C@@H](CC(C)C)C(=O)NCCCN(C)C)ccc21` [Example 224, 1-(1-Ethyl-propyl)-2-thiophen-2-ylmethyl-1H-benzoimidazole-5-carboxylic acid [(S)-1-(3-dimethylamino-propylcarbamoyl)-3-methyl-butyl]-amide], the EC50 (read-out: EC50 (APJ agonism)) turned out to be 300 nM.

On to `CC(C)C[C@H](NC(=O)c1ccc2c(c1)nc(Cc1cccs1)n2-c1ccccc1)C(=O)O` [Example 132, (S)-4-Methyl-2-[(1-phenyl-2-thiophen-2-ylmethyl-1H-benzoimidazole-5-carbonyl)-amino]-pentanoic acid], for which, where the note is “read-out: EC50 (APJ agonism)”, the EC50 is 700 nM.

Take `CCC(CC)n1c(Cc2ccc(C)s2)nc2cc(C(=O)N[C@@H](CC(C)C)C(=O)O)ccc21` [Example 119, (S)-2-{[1-(1-Ethyl-propyl)-2-(5-methyl-thiophen-2-ylmethyl)-1H-benzoimidazole-5-carbonyl]-amino}-4-methyl-pentanoic acid]: the concentration for a half-maximal effect (EC50) (read-out: EC50 (APJ agonism)) stood at 33100 nM.

Consider `C[C@@H]1CCCC[C@H]1n1c(Cc2cccs2)nc2cc(C(=O)N[C@@H](CC3CCCCC3)[C@H](O)CC(=O)O)ccc21` [Example 74, (3R,4S)-5-Cyclohexyl-3-hydroxy-4-{[1-((1R,2R)-2-methyl-cyclohexyl)-2-thiophen-2-ylmethyl-1H-benzoimidazole-5-carbonyl]-amino}-pentanoic acid], for which the EC50 (read-out: EC50 (APJ agonism)) is 140 nM.

For the compound `CC(C)C[C@H](NC(=O)c1ccc2c(c1)nc(Cc1cccs1)n2C1CCCCC1C)C(=O)N(C)C` (stereo partly drawn) [Example 216, 1-(2-Methyl-cyclohexyl)-2-thiophen-2-ylmethyl-1H-benzoimidazole-5-carboxylic acid ((S)-1-dimethyl-carbamoyl-3-methyl-butyl)-amide], under “read-out: EC50 (APJ agonism)”, the EC50 stood at 1730 nM.

With `CCCC(NC(=O)c1ccc2c(c1)nc(Cc1cccs1)n2C(CC)CC)C(C)(C)C(=O)O` (stereo not drawn) [Example 63, 3-{[1-(1-Ethyl-propyl)-2-thiophen-2-ylmethyl-1H-benzoimidazole-5-carbonyl]-amino}-2,2-dimethyl-hexanoic acid], the EC50 (read-out: EC50 (APJ agonism)) turned out to be 343 nM.

As for `CCC(CC)n1c(Cc2cccs2)nc2cc(C(=O)N[C@@H](CC(C)C)C(=O)N(C)CC3CCCO3)ccc21` (stereo partly drawn) [Example 387, 1-(1-Ethyl-propyl)-2-thiophen-2-ylmethyl-1H-benzoimidazole-5-carboxylic acid {(S)-3-methyl-1-[methyl-(tetrahydro-furan-2-ylmethyl)-carbamoyl]-butyl}-amide], the EC50 (read-out: EC50 (APJ agonism)) came out at 1140 nM.

For the compound `CCC(CC)n1c(Cc2cccs2)nc2cc(C(=O)N[C@@H](CC(C)C)C(=O)N3CC[C@@H](N(C)C)C3)ccc21` [Example 260, 1-(1-Ethyl-propyl)-2-thiophen-2-ylmethyl-1H-benzoimidazole-5-carboxylic acid [(S)-1-((R)-3-dimethylamino-pyrrolidine-1-carbonyl)-3-methyl-butyl]-amide], the EC50 (read-out: EC50 (APJ agonism)) was 170 nM.

As for `CCC(CC)n1c(Cc2cccs2)nc2cc(C(=O)N[C@@H](Cc3ccc(Cl)c(Cl)c3)C(=O)O)ccc21` [Example 32, (S)-3-(3,4-Dichloro-phenyl)-2-{[1-(1-ethyl-propyl)-2-thiophen-2-ylmethyl-1H-benzoimidazole-5-carbonyl]-amino}-propionic acid], under “read-out: EC50 (APJ agonism)”, the concentration for a half-maximal effect (EC50) came to 4570 nM.

For `CC(C)C[C@@H](CC(=O)O)NC(=O)c1ccc2c(c1)nc(Cc1cccs1)n2C1CCCCC1C` (single isomer, unassigned) [Example 439], the EC50 (read-out: EC50 (APJ agonism)) was found to be 662 nM.

`CCC[C@H](NC(=O)c1ccc2c(c1)nc(Cc1cccs1)n2C1CCCCC1C(F)(F)F)C(=O)O` (stereo partly drawn) [Example 88, (S)-2-{[2-Thiophen-2-ylmethyl-1-(2-trifluoromethyl-cyclohexyl)-1H-benzoimidazole-5-carbonyl]-amino}-pentanoic acid]: where the note is “read-out: EC50 (APJ agonism)”, the EC50 came to 754 nM.

`CCC(CC)n1c(Cc2cccs2)nc2cc(C(=O)N[C@@H](CC(C)C)C(=O)NC3CCN(CCc4ccc(OC)cc4)CC3)ccc21` [Example 328, 1-(1-Ethyl-propyl)-2-thiophen-2-ylmethyl-1H-benzoimidazole-5-carboxylic acid ((S)-1-{1-[2-(4-methoxy-phenyl)-ethyl]-piperidin-4-ylcarbamoyl}-3-methyl-butyl)-amide]: the EC50 (read-out: EC50 (APJ agonism)) came to 1270 nM.

For `CC(C)C[C@H](NC(=O)c1ccc2c(c1)nc(Cc1cccs1)n2C1CCCCC1C)C(=O)O` (single isomer, unassigned) [Example 412], the EC50 (read-out: EC50 (APJ agonism)) was 106 nM.

Turning to `CCC(CC)n1c(Cc2cccs2)nc2cc(C(=O)N[C@@H](CC(C)C)C(=O)NCc3cccc(N(C)C)c3)ccc21` [Example 252, 1-(1-Ethyl-propyl)-2-thiophen-2-ylmethyl-1H-benzoimidazole-5-carboxylic acid [(S)-1-(3-dimethylamino-benzylcarbamoyl)-3-methyl-butyl]-amide], the EC50 (read-out: EC50 (APJ agonism)) came out at 6990 nM.

On to `CCC(CC)n1c(Cc2cccs2)nc2cc(C(=O)N[C@H](CC(=O)O)[C@@H](C)CC)ccc21` [Example 54, (3R,4S)-3-{[1-(1-Ethyl-propyl)-2-thiophen-2-ylmethyl-1H-benzoimidazole-5-carbonyl]-amino}-4-methyl-hexanoic acid], for which the EC50 (read-out: EC50 (APJ agonism)) was 115 nM.

Consider `CCC(CC)n1c(Cc2cccs2)nc2cc(C(=O)N[C@@H](CC(C)C)C(=O)NCC(C)(C)OC)ccc21` [Example 394, 1-(1-Ethyl-propyl)-2-thiophen-2-ylmethyl-1H-benzoimidazole-5-carboxylic acid [(S)-1-(2-methoxy-2-methyl-propylcarbamoyl)-3-methyl-butyl]-amide], for which the EC50 (read-out: EC50 (APJ agonism)) worked out at 2330 nM.

Regarding `CCCCC(NC(=O)c1ccc2c(c1)nc(Cc1cccs1)n2C(CC)CC)C(C)(C)C(=O)O` (single isomer, unassigned) [Example 468], the EC50 (read-out: EC50 (APJ agonism)) is 719 nM.

Consider `CCC(CC)n1c(Cc2cccs2)nc2cc(C(=O)N[C@@H](CC(C)C)C(=O)NC3CCN(CC4CCCCC4)CC3)ccc21` [Example 344, 1-(1-Ethyl-propyl)-2-thiophen-2-ylmethyl-1H-benzoimidazole-5-carboxylic acid [(S)-1-(1-cyclohexylmethyl-piperidin-4-ylcarbamoyl)-3-methyl-butyl]-amide], for which the EC50 (read-out: EC50 (APJ agonism)) was determined as 1690 nM.

Turning to `CCCC[C@@H](CO)NC(=O)c1ccc2c(c1)nc(CC1CCCC1)n2C(CC)CC` [Example 184, 2-Cyclopentylmethyl-1-(1-ethyl-propyl)-1H-benzoimidazole-5-carboxylic acid ((S)-1-hydroxymethyl-pentyl)-amide], the EC50 (EC50 (APJ agonism)) is 2900 nM.

As for `CCC(CC)n1c(Cc2cccs2)nc2cc(C(=O)NC(CC(C)(C)C)C(=O)O)ccc21` (stereo not drawn) [Example 126, 2-{[1-(1-Ethyl-propyl)-2-thiophen-2-ylmethyl-1H-benzoimidazole-5-carbonyl]-amino}-4,4-dimethyl-pentanoic acid], the EC50 (read-out: EC50 (APJ agonism)) was 3930 nM.

Take `CCC(CC)n1c(Cc2cccs2)nc2cc(C(=O)N[C@@H](CC(C)C)C(=O)N(CCOC)CCOC)ccc21` [Example 363, 1-(1-Ethyl-propyl)-2-thiophen-2-ylmethyl-1H-benzoimidazole-5-carboxylic acid {(S)-1-[bis-(2-methoxy-ethyl)-carbamoyl]-3-methyl-butyl}-amide]: the EC50 (read-out: EC50 (APJ agonism)) worked out at 1720 nM.

In the case of `C[C@@H]1CCCC[C@H]1n1c(Cc2cccs2)nc2cc(C(=O)NC(CC(=O)O)CC3CCCCC3)ccc21` (single isomer, unassigned) [Example 456], for the setting “read-out: EC50 (APJ agonism)”, the EC50 was found to be 152 nM.

As to `CCC(CC)n1c(Cc2cccs2)nc2cc(C(=O)N[C@@H](CC(C)C)C(=O)N3CCC(N(C)Cc4ccccc4)CC3)ccc21` [Example 345, 1-(1-Ethyl-propyl)-2-thiophen-2-ylmethyl-1H-benzoimidazole-5-carboxylic acid {(S)-1-[4-(benzyl-methyl-amino)-piperidine-1-carbonyl]-3-methyl-butyl}-amide], the EC50 (read-out: EC50 (APJ agonism)) came out at 1670 nM.

With `CCC(C)n1c(Cc2cccs2)nc2cc(C(=O)N[C@@H](CC(C)C)C(=O)O)ccc21` (stereo partly drawn) [Example 147, (S)-2-[(1-sec-Butyl-2-thiophen-2-ylmethyl-1H-benzoimidazole-5-carbonyl)-amino]-4-methyl-pentanoic acid], the EC50 (read-out: EC50 (APJ agonism)) was determined as 4550 nM.

Source of the values: patent US9156796B2, “Benzoimidazole-carboxylic acid amide derivatives as APJ receptor modulators” (SANOFI, priority 2013, dated 2015).
